One may read the Kd as the constant that tells how readily two partners part at equilibrium. A word on the Ki: it is a dissociation constant, usually derived from enzyme kinetics or from competition with a known ligand. Low values mean higher affinity, high ones lower affinity.

Our source for the Kd and Ki values is patent US9957261B2 (Hoffmann-La Roche Inc., priority 2014, dated 2018).

Test [1] has as its target mouse TAAR1 (Mus musculus (Mouse), UniProt Q923Y8). Kind of test: Radioligand binding assay on mouse TAAR1. The following applies: for Ki: mouse TAAR1, membranes of stably transfected HEK-293 cells, first value of mouse/rat pair. As to the method: (§1) Construction of TAAR Expression Plasmids and Stably Transfected Cell Lines
(§2) For the construction of expression plasmids the coding sequences of human, rat and mouse TAAR 1 were amplified from genomic DNA essentially as described by Lindemann et al.. The Expand High Fidelity PCR System (Roche Diagnostics) was used with 1.5 mM Mg^2+ and purified PCR products were cloned into pCR2.1-TOPO cloning vector (Invitrogen) following the instructions of the manufacturer. PCR products were subcloned into the pIRESneo2 vector (BD Clontech, Palo Alto, Calif.), and expression vectors were sequence verified before introduction in cell lines.
(§3) HEK293 cells (ATCC # CRL-1573) were cultured essentially as described by Lindemann et al. (2005). For the generation of stably transfected cell lines HEK293 cells were transfected with the pIRESneo2 expression plasmids containing the TAAR coding sequences (described above) with Lipofectamine 2000 (Invitrogen) according to the instructions of the manufacturer, and 24 hrs post transfection the culture medium was supplemented with 1 mg/ml G418 (Sigma, Buchs, Switzerland). After a culture period of about 10 d clones were isolated, expanded and tested for responsiveness to trace amines (all compounds purchased from Sigma) with the cAMP Biotrak Enzyme immunoassay (EIA) System (Amersham) following the non-acetylation EIA procedure provided by the manufacturer.
Radioligand Binding Assay on Mouse TAAR1
(§4) Membrane Preparation and Radioligand Binding.
(§5) HEK-293 cells stably expressing mouse TAAR1 were maintained at 37° C. and 5% CO2 in DMEM high glucose medium, containing fetal calf serum (10%, heat inactivated for 30 min at 56° C.), penicillin/streptomycin (1%), and 375 μg/ml geneticin (Gibco). Cells were released from culture flasks using trypsin/EDTA, harvested, washed twice with ice-cold PBS (without Ca^2+ and Mg^2+), pelleted at 1′000 rpm for 5 min at 4° C., frozen and stored at −80° C. Frozen pellets were suspended in 20 ml HEPES-NaOH (20 mM, pH 7.4) containing 10 mM EDTA and homogenized with a Polytron (PT 6000, Kinematica) at 14,000 rpm for 20 s. The homogenate was centrifuged at 48,000×g for 30 min at 4° C. Subsequently, the supernatant was removed and discarded, and the pellet resuspended in 20 ml HEPES-NaOH (20 mM, pH 7.4) containing 0.1 mM EDTA using the Polytron (20 s at 14,000 rpm). This procedure was repeated and the final pellet resuspended in HEPES-NaOH containing 0.1 mM EDTA and homogenized using the Polytron. Typically, aliquots of 2 ml membrane portions were stored at −80° C. With each new membrane batch the dissociation constant (Kd) was determined via a saturation curve. […] Nonspecific binding was defined as the amount of ^3[H]—(S)-4-[(ethyl-phenyl-amino)-methyl]-4,5-dihydro-oxazol-2-ylamine bound in the presence of 10 μM unlabeled ligand. All compounds were tested at a broad range of concentrations (10 pM to 10 μM) in duplicates. […] The 96 deep well plates were incubated for 1 hr at 4° C. Incubations were terminated by rapid filtration through Unifilter-96 plates (Packard Instrument Company) and glass filters GF/C (Perkin Elmer) presoaked for 1 hr in polyethylenimine (0.3%) and washed 3 times with 1 ml of cold binding buffer. After addition of 45 μl of Microscint 40 (PerkinElmer) the Unifilter-96 plate was sealed and after 1 hr the radioactivity counted using a TopCount Microplate Scintillation Counter (Packard Instrument Company).

For test [2], the target named is rat TAAR1 (Rattus norvegicus (Rat), UniProt Q923Y9). Kind of test: Radioligand binding assay on rat TAAR1. The following applies: for Ki: rat TAAR1, membranes of stably transfected HEK-293 cells, second value of mouse/rat pair. On the procedure:
as §1, §2, §3
Radioligand Binding Assay on Rat TAAR1
as §4
as §5, with “rat” for “mouse”, “[H]—(S)-4-[(ethyl-phenyl-amino)-methyl]-4,5-dihydro-oxazol-2-ylamine” for “^3[H]—(S)-4-[(ethyl-phenyl-amino)-methyl]-4,5-dihydro-oxazol-2-ylamine”

Sequence of rat TAAR1 (Q923Y9 whole entry): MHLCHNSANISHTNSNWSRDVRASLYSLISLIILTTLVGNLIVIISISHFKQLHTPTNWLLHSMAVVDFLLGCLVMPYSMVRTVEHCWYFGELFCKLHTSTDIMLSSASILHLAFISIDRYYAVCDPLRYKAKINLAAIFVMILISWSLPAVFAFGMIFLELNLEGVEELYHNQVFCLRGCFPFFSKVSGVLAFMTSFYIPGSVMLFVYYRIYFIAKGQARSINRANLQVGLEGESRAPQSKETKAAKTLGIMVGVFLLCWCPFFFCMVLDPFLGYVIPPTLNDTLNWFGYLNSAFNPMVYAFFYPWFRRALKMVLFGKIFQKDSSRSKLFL
Sequence of mouse TAAR1 (Q923Y8 whole entry): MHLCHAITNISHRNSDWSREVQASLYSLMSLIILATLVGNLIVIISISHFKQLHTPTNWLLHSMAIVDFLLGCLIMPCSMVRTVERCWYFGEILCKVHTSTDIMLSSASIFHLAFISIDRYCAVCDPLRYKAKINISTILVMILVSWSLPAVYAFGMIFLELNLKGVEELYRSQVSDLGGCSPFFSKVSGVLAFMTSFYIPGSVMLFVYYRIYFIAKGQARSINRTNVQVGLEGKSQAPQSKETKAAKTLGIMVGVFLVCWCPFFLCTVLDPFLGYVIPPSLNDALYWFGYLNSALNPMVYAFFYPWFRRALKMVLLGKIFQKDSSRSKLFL

As to `CCN(C[C@H]1COC(N)=N1)c1ccccc1` [(S)-4-[(ethyl-phenyl-amino)-methyl]-4,5-dihydro-oxazol-2-ylamine, reference compound], the Kd is roughly 0.7 nM in test [1] (mouse TAAR1 membranes, saturation curve, read-out: dissociation constant (Kd) of the radioligand) and roughly 2.3 nM in test [2] (rat TAAR1 membranes, saturation curve, read-out: dissociation constant (Kd) of the radioligand).

Take `NC1CCc2cc(NC(=O)c3ccnc(C(F)(F)F)c3)ccc2C1` (centres unmarked) [Example 1, N-(6-Amino-5,6,7,8-tetrahydronaphthalen-2-yl)-2-(trifluoromethyl)isonicotinamide]: the Ki stood at 0.0159 µM in test [1] and 0.0072 µM in test [2].

As for `NC1CCc2cc(NC(=O)c3n[nH]c(C4CC4)c3Br)ccc2C1` (centres unmarked) [Example 2, N-(6-Amino-5,6,7,8-tetrahydronaphthalen-2-yl)-4-bromo-5-cyclopropyl-1H-pyrazole-3-carboxamide], the Ki came out at 0.0077 µM in test [1] and 0.0042 µM in test [2].

Take `CCCc1cc(C(=O)Nc2ccc3c(c2)CCC(N)C3)nn1CC(F)F` (centres unmarked) [Example 3, N-(6-Amino-5,6,7,8-tetrahydronaphthalen-2-yl)-1-(2,2-difluoroethyl)-5-propyl-1H-pyrazole-3-carboxamide]: the inhibitory constant (Ki) worked out at 0.0132 µM in test [1] and 0.0035 µM in test [2].

Consider `CCCc1cc(C(=O)Nc2ccc3c(c2)CC[C@@H](N)C3)nn1CC(F)F` [Example 4, (R)—N-(6-Amino-5,6,7,8-tetrahydronaphthalen-2-yl)-1-(2,2-difluoroethyl)-5-propyl-1H-pyrazole-3-carboxamide], for which the inhibitory constant (Ki) was found to be 0.0914 µM in test [1] and 0.0055 µM in test [2].

Take `CCCc1cc(C(=O)Nc2ccc3c(c2)CC[C@H](N)C3)nn1CC(F)F` [Example 5, (S)—N-(6-Amino-5,6,7,8-tetrahydronaphthalen-2-yl)-1-(2,2-difluoroethyl)-5-propyl-1H-pyrazole-3-carboxamide]: the inhibition constant (Ki) in test [1] was 0.0067 µM; in test [2], 0.0021 µM.

With `Cc1cc(C(=O)Nc2ccc3c(c2)CC[C@@H](N)C3)nc(C(F)(F)F)n1` [Example 6, (R)—N-(6-Amino-5,6,7,8-tetrahydronaphthalen-2-yl)-6-methyl-2-(trifluoromethyl)-pyrimidine-4-carboxamide], the Ki in test [1] was determined as 0.232 µM; in test [2], 0.0544 µM.

As to `Cc1cc(C(=O)Nc2ccc3c(c2)CC[C@H](N)C3)nc(C(F)(F)F)n1` [Example 7, (S)—N-(6-Amino-5,6,7,8-tetrahydronaphthalen-2-yl)-6-methyl-2-(trifluoromethyl)-pyrimidine-4-carboxamide], the Ki was determined as 0.0318 µM in test [1] and 0.0198 µM in test [2].

On to `CCCc1cc(C(=O)Nc2ccc3c(c2)OCC(N)C3)nn1CC(F)F` (centres unmarked) [Example 8, N-(3-Aminochroman-7-yl)-1-(2,2-difluoroethyl)-5-propyl-1H-pyrazole-3-carboxamide], for which the Ki in test [1] turned out to be 0.0198 µM; in test [2], 0.01 µM.

With `Cc1cc(C(=O)Nc2ccc3c(c2)OCC(N)C3)nc(C(F)(F)F)n1` (centres unmarked) [Example 9, N-(3-Aminochroman-7-yl)-6-methyl-2-(trifluoromethyl)pyrimidine-4-carboxamide], the Ki in test [1] is 0.0805 µM; in test [2], 0.114 µM.

Turning to `CCCc1cc(C(=O)Nc2ccc3c(c2)OC[C@H](N)C3)nn1CC(F)F` [Example 10, (R)—N-(3-Aminochroman-7-yl)-1-(2,2-difluoroethyl)-5-propyl-1H-pyrazole-3-carboxamide], the values for the Ki in test [1] and in test [2] were 0.0111 µM and 0.0034 µM, respectively.

`CCCc1cc(C(=O)Nc2ccc3c(c2)OC[C@@H](N)C3)nn1CC(F)F` [Example 11, (S)—N-(3-Aminochroman-7-yl)-1-(2,2-difluoroethyl)-5-propyl-1H-pyrazole-3-carboxamide]: the results for the Ki in test [1] and in test [2] were 0.187 µM and 0.0096 µM, respectively.

On to `Cc1cc(C(=O)Nc2ccc3c(c2)OC[C@H](N)C3)nc(C(F)(F)F)n1` [Example 12, (R)—N-(3-Aminochroman-7-yl)-6-methyl-2-(trifluoromethyl)pyrimidine-4-carboxamide], for which the Ki in test [1] worked out at 0.0581 µM; in test [2] it was 0.0436 µM.

As for `Cc1cc(C(=O)Nc2ccc3c(c2)OC[C@@H](N)C3)nc(C(F)(F)F)n1` [Example 13, (S)—N-(3-Aminochroman-7-yl)-6-methyl-2-(trifluoromethyl)pyrimidine-4-carboxamide], the Ki in test [1] amounted to 1.45 µM; in test [2], 0.241 µM.

For the compound `N[C@@H]1CCc2cc(NC(=O)c3ccc(Cl)cc3)ccc2C1` [Example 14, (R)—N-(6-Amino-5,6,7,8-tetrahydronaphthalen-2-yl)-4-chlorobenzamide], the values for the Ki in test [1] and in test [2] were 0.0092 µM and 0.0069 µM, respectively.

With `N[C@@H]1CCc2cc(NC(=O)c3ccccc3Cl)ccc2C1` [Example 15, (R)—N-(6-Amino-5,6,7,8-tetrahydronaphthalen-2-yl)-2-chlorobenzamide], the inhibition constant Ki is 1.97 µM in test [1] and 0.6 µM in test [2].

In the case of `N[C@H]1CCc2cc(NC(=O)Nc3ccc(C(F)(F)F)nc3)ccc2C1` [Example 16, (S)-1-(6-Amino-5,6,7,8-tetrahydronaphthalen-2-yl)-3-(6-(trifluoromethyl)pyridin-3-yl)urea], the results for the Ki in test [1] and in test [2] were 0.0045 µM and 0.0023 µM, respectively.

For the compound `Cc1cc(C(=O)Nc2ccc3c(c2)CC[C@H](N)C3)ccn1` [Example 17, (S)—N-(6-Amino-5,6,7,8-tetrahydronaphthalen-2-yl)-2-methylisonicotinamide], the Ki in test [1] is 0.111 µM; in test [2], 0.147 µM.

As for `CC(=O)Nc1cc(C(=O)Nc2ccc3c(c2)CC[C@H](N)C3)ccn1` [Example 18, (S)-2-Acetamido-N-(6-amino-5,6,7,8-tetrahydronaphthalen-2-yl)isonicotinamide], the figures for the inhibitory constant (Ki) in test [1] and in test [2] were 0.71 µM and 0.232 µM, respectively.

With `CCOc1cc(C(=O)Nc2ccc3c(c2)CC[C@H](N)C3)ccn1` [Example 19, (S)—N-(6-Amino-5,6,7,8-tetrahydronaphthalen-2-yl)-2-ethoxyisonicotinamide], the figures for the Ki in test [1] and in test [2] were 0.0187 µM and 0.0216 µM, respectively.

Take `N[C@H]1CCc2cc(NCc3ccc(Cl)cc3)ccc2C1` [Example 75, (S)—N6-(4-Chlorobenzyl)-1,2,3,4-tetrahydronaphthalene-2,6-diamine]: the affinity in test [1] corresponds to a Ki of 0.0048 µM.
